Source: US8835644B2, “Broad spectrum benzothiophene-nitrothiazolide and other antimicrobials” (University of Virginia Patent Foundation, priority 2009, dated 2014)
In brackets after ≈: the same amount, converted by molar mass. Like-named read-outs stand apart in the source and are kept apart here. Marks after values point to notes of the source that are not given here.

Legend:
H. pylori = experiment: MIC testing by broth dilution, H. pylori; assay type: cell-based, Helicobacter pylori
Summary of the method: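 Helicobacter pylori was tested using a standard broth dilution method in 96 well microplates, each well holding a standard dilution of the organism in 100 microliters of Brain Heart Infusion. Compounds started at 32 μg/ml in 200 microliters in the first well and were serially diluted from 32 to 0.06. Wells were read visually at 24 h, and the MIC was the well with no growth.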

C. jejuni = experiment: MIC testing by broth dilution, C. jejuni; assay type: cell-based, Campylobacter jejuni
Summary of the method: (§1)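 Media: LB (E. coli), Trypticase Soy (S. epidermidis), BHI (C. jejuni); plank cells. C. difficile on Wilkins Chalgrin agar, anaerobic Kirby-Bauer disks, zone vs NTZ zone ratio.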

MRSA = experiment: MIC testing by broth dilution, MRSA; assay type: cell-based, Staphylococcus aureus
Summary of the method: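 Values are broth-dilution MICs, defined as the well showing no growth on visual reading after 24 h; the tested range was 32 to 0.06 μg/ml, in organism-specific media (LB, Trypticase Soy, Brain Heart Infusion). The C. difficile entries come instead from anaerobic Kirby-Bauer disk zones, normalised to NTZ.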

S. epidermidis = experiment: MIC testing by broth dilution, S. epidermidis plank; assay type: cell-based, Staphylococcus epidermidis
Summary of the method: as §1

E. coli = experiment: MIC testing by broth dilution, E. coli plank; assay type: cell-based, Escherichia coli
Summary of the method: as §1

C. difficile = experiment: Disk diffusion (Kirby Bower), C. difficile; assay type: cell-based, Clostridium difficile; conditions: for Disk Diff (%) C. difficile: Nitazoxanide = 100; for Disk Diffusion (%) C. difficile: zone of inhibited growth as relative ratio to the zone for NTZ
Summary of the method: as §1

[1] = system: PFOR (pyruvate ferredoxin oxidoreductase); experiment: Direct PFOR enzyme assay; assay type: biochemical
Experimental: Representative compounds of the invention were tested in a series of assays against a series of organisms as described above. […] The organisms tested include, C. difficile, H. pylori, C. jejuni, MRSA, S. epidermidis, and E. coli. S. epidermidis and E. coli were tested in the plank and biofilm assay. A disk diffusion assay was also used for C. difficile. Direct PFOR enzyme assays were also performed. All analogues and derivatives were not tested on every organism in every type of assay (the “-” in each table means that it was not tested).

[2] = broth dilution, Brain Heart Infusion, 24 h, read-out: MIC (μM) H. pylori
[3] = broth dilution, Brain Heart Infusion, 24 h, read-out: MIC (μM) C. jejuni
[4] = broth dilution, Trypticase Soy, 24 h, read-out: MIC (μM) MRSA
[5] = broth dilution, Trypticase Soy, 24 h, read-out: MIC (μM) S. epidermidis Plank
[6] = broth dilution, LB medium, 24 h, read-out: MIC (μM) E. coli Plank
[7] = Helicobacter pylori, 24 h, read-out: MIC (μM) H. pylori
[8] = Campylobacter jejuni, 24 h, read-out: MIC (μM) C. jejuni
[9] = Escherichia coli, 24 h, read-out: MIC (μM) E. coli Plank
[10] = 2-amino-3,5-dinitrothiophene analogues table, read-out: MIC H. pylori
[11] = 2-amino-3,5-dinitrothiophene analogues table, read-out: MIC C. jejuni
[12] = 2-amino-3,5-dinitrothiophene analogues table, read-out: MIC MRSA
[13] = planktonic, 2-amino-3,5-dinitrothiophene analogues table, read-out: MIC S. epidermidis Plank
[14] = planktonic, 2-amino-3,5-dinitrothiophene analogues table, read-out: MIC E. coli Plank
[15] = 2-amino-3,5-dinitrothiophene analogues table
[16] = * biphasic initial inhibition followed by uninhibited rate, ** caused some precipitant in extract

`O=C(Nc1ncc([N+](=O)[O-])s1)c1ccsc1` [VPC16a1008] was tested, and the MIC (H. pylori; Thiophene analogues table, read-out: MIC H. pylori) was 0.7 µM (≈ 0.179 µg/mL), the MIC (C. jejuni; Thiophene analogues table, read-out: MIC C. jejuni) was 5.9 µM (≈ 1.51 µg/mL) and the MIC (MRSA; Thiophene analogues table, read-out: MIC MRSA) was 23.5 µM (≈ 6 µg/mL). The MIC (S. epidermidis; planktonic, Thiophene analogues table, read-out: MIC S. epidermidis Plank) was 15.7 µM (≈ 4.01 µg/mL), the MIC (E. coli; planktonic, Thiophene analogues table, read-out: MIC E. coli Plank) was 125.4 µM (≈ 32 µg/mL) and the “Disk Diff (%) C. difficile” value (C. difficile; Thiophene analogues table) was 100%. For the same molecule, the “PFOR inhibition relative to nitazoxanide (=100)” value ([1]; Thiophene analogues table) was 96%.

Work on `O=C(Nc1ncc([N+](=O)[O-])s1)c1cc(C(F)(F)F)cc(C(F)(F)F)c1` [VPC16a1039] yielded an MIC (H. pylori; [2]) of 5.2 µM (≈ 2 µg/mL), an MIC (C. jejuni; [3]) of 41.5 µM (≈ 16 µg/mL) and an MIC (MRSA; [4]) of 2.6 µM (≈ 1 µg/mL). For the same molecule, the MIC (S. epidermidis; [5]) was 1.9 µM (≈ 0.732 µg/mL), the MIC (E. coli; [6]) was 83.1 µM (≈ 32 µg/mL) and the “Disk Diffusion (%) C. difficile” value (C. difficile) was 80%. The “PFOR inhibition relative to nitazoxanide (=100)” value [1] was 54* %.

With `O=C(Nc1ncc([N+](=O)[O-])s1)c1cc(C(F)(F)F)ccc1Cl` [VPC16a1040] the MIC (H. pylori; [2]) was 1.1 µM (≈ 0.387 µg/mL), the MIC (C. jejuni; [3]) was 17.1 µM (≈ 6.01 µg/mL) and the MIC (MRSA; [4]) was 22.7 µM (≈ 7.98 µg/mL). For the same molecule, the MIC (S. epidermidis; [5]) was 22.7 µM (≈ 7.98 µg/mL), the MIC (E. coli; [6]) was 91.0 µM (≈ 32 µg/mL) and the “Disk Diffusion (%) C. difficile” value (C. difficile) was 90%. The “PFOR inhibition relative to nitazoxanide (=100)” value [1] was 68%.

Work on `O=C(Nc1ncc([N+](=O)[O-])s1)c1cccnc1F` [VPC16a1052, 2-Fluoro-N-(5-nitrothiazol-2-yl)nicotinamide] yielded an MIC (H. pylori; [7]) of 3.7 µM (≈ 0.992 µg/mL), an MIC (C. jejuni; [8]) of 7.5 µM (≈ 2.01 µg/mL) and an MIC (E. coli; [9]) of 119 µM (≈ 32 µg/mL). The “Disk Diffusion (%) C. difficile” value (C. difficile) was 100% and the “PFOR inhibition relative to nitazoxanide (=100)” value [1] was 91%.

`O=C(Nc1ncc([N+](=O)[O-])s1)c1ccc(Cl)c(C(F)(F)F)c1` [VPC16a1060] gave an MIC (H. pylori; [7]) of 2.8 µM (≈ 0.985 µg/mL), an MIC (C. jejuni; [8]) of 2.8 µM (≈ 0.985 µg/mL) and an MIC (E. coli; [9]) of 91 µM (≈ 32 µg/mL). For the same molecule, the “Disk Diffusion (%) C. difficile” value (C. difficile) was 89% and the “PFOR inhibition relative to nitazoxanide (=100)” value [1] was 63* %.

With `O=C(Nc1ncc([N+](=O)[O-])s1)c1ccc(-c2ccc(F)cc2)o1` [VPC16a1104] the MIC (H. pylori; Furan analogues table, read-out: MIC H. pylori) was 1.0 µM (≈ 0.333 µg/mL), the MIC (C. jejuni; Furan analogues table, read-out: MIC C. jejuni) was 96.0 µM (≈ 32 µg/mL) and the MIC (MRSA; Furan analogues table, read-out: MIC MRSA) was 96.0 µM (≈ 32 µg/mL). For the same molecule, the MIC (S. epidermidis; planktonic, Furan analogues table, read-out: MIC S. epidermidis Plank) was 96.0 µM (≈ 32 µg/mL) and the “PFOR inhibition relative to nitazoxanide (=100)” value ([1]; Furan analogues table) was 81%.

Molecule `O=C(Nc1sc([N+](=O)[O-])cc1[N+](=O)[O-])c1ccccc1` [VPC16b1090] has an MIC (H. pylori; [10]) of 1.3 µM (≈ 0.381 µg/mL), an MIC (C. jejuni; [11]) of 0.9 µM (≈ 0.264 µg/mL) and an MIC (MRSA; [12]) of 109.1 µM (≈ 32 µg/mL). For the same molecule, the MIC (S. epidermidis; [13]) was 5.1 µM (≈ 1.5 µg/mL), the MIC (E. coli; [14]) was 109.1 µM (≈ 32 µg/mL) and the “Disk Diff (%) C. difficile” value (C. difficile; [15]) was 0%. For the same molecule, the “PFOR inhibition relative to nitazoxanide (=100)” value [1, 16] was 100** %.

`O=C(Nc1sc([N+](=O)[O-])cc1[N+](=O)[O-])c1cccc(C(F)(F)F)c1` [VPC16b1092] showed an MIC (H. pylori; [10]) of 0.5 µM (≈ 0.181 µg/mL), an MIC (C. jejuni; [11]) of 2.1 µM (≈ 0.759 µg/mL) and an MIC (MRSA; [12]) of 1.4 µM (≈ 0.506 µg/mL). The MIC (S. epidermidis; [13]) was 0.2 µM (≈ 0.0723 µg/mL), the MIC (E. coli; [14]) was 88.6 µM (≈ 32 µg/mL) and the “Disk Diff (%) C. difficile” value (C. difficile; [15]) was 59%. The “PFOR inhibition relative to nitazoxanide (=100)” value [1, 16] was 87** %.

`O=C(Nc1sc([N+](=O)[O-])cc1[N+](=O)[O-])c1cccs1` [VPC16b1093, N-(3,5-Dinitrothiophen-2-yl)thiophene-2-carboxamide] was tested, and the MIC (H. pylori; Helicobacter pylori, read-out: MIC H. pylori) was 2.5 µM (≈ 0.748 µg/mL), the MIC (C. jejuni; Campylobacter jejuni, read-out: MIC C. jejuni) was 1 µM (≈ 0.299 µg/mL) and the MIC (MRSA; Staphylococcus aureus, MRSA, read-out: MIC MRSA) was 26.7 µM (≈ 7.99 µg/mL). The MIC (S. epidermidis; Staphylococcus epidermidis, read-out: MIC S. epidermidis Plank) was 13.4 µM (≈ 4.01 µg/mL), the MIC (E. coli; Escherichia coli, read-out: MIC E. coli Plank) was 107 µM (≈ 32 µg/mL) and the “Disk Diff (%) C. difficile” value (C. difficile; [15]) was 43%. The “PFOR inhibition relative to nitazoxanide (=100)” value [1, 16] was 143%.

In the case of `O=C(Nc1sc([N+](=O)[O-])cc1[N+](=O)[O-])c1ccoc1` [VPC16b1094], the MIC (H. pylori; [10]) is reported as 2.7 µM (≈ 0.765 µg/mL), the MIC (C. jejuni; [11]) is reported as 0.4 µM (≈ 0.113 µg/mL) and the MIC (MRSA; [12]) is reported as 56.5 µM (≈ 16 µg/mL). The MIC (S. epidermidis; [13]) was 28.2 µM (≈ 7.99 µg/mL), the MIC (E. coli; [14]) was 113.0 µM (≈ 32 µg/mL) and the “Disk Diff (%) C. difficile” value (C. difficile; [15]) was 53%. The “PFOR inhibition relative to nitazoxanide (=100)” value [1, 16] was 126* %.
